Results taken from patent US8981149B2, “Compounds modulating the hedgehog protein signaling pathway, marked forms thereof, and applications” (Centre National De La Recherche Scientifique, priority 2011, dated 2015).
“And” between values parts separate entries of the source, which are not always exact repeats. Equal entries are not always repeated. Structures can show the parent of a compound that is named as a salt. Where two headings read alike, the source gives them in different places. One block for each compound: values may come before it.

What was measured:
C3H10T1/2 cells = assay: Differentiation of C3H10T1/2 cells induced by SAG, alkaline phosphatase (AP) activity; format: cell-based, mouse
Procedure: The test compounds of formula (I) were dissolved in dimethylsulfoxide up to a concentration of 10 mM, then stored at a temperature of −20° C. until used.
The line of C3H10T1/2 pluripotent fibroblast cells (ATCC) was cultured in the conditions recommended by the ATCC. These cells were activated using 0.1 μM of SAG according to the methods described by Chen et al., Proc. Natl. Acad. Sci. USA, 2002, 99, 14071 and Frank-Kamenetsky et al., J. Biol., 2002, 1, 10.
Activation by SAG causes differentiation of the cell line and allows it to express alkaline phosphatase (AP). It was thus possible to measure the activity of the Hedgehog protein signalling pathway via measurement of the alkaline phosphatase (AP) activity.
The C3H10T1/2 cells were seeded on 96-well plates at a density of 5.10^3 cells per well, 24 hours before adding the test compounds at a concentration varying from 1 nM to 30 μM and in the presence of 0.1 μM of SAG, using DMEM (Dulbecco's Modified Eagle's Medium) with 10% fetal calf serum as culture medium. The tests were carried out in quadruplicate. The plates were then incubated for 5 to 6 days at a temperature of 37° C. under 5% CO2 atmosphere. The cells were then washed in cold phosphate buffer (“Phosphate Buffer Serum”: PBS), then lysed by sonication at 4° C. in 50 μL of a solution containing 0.9% of NaCl and 0.2% of Triton X-100.
Measurement of the alkaline phosphatase (AP) activity in the lysates thus obtained was then performed according to the method described by Pepinsky et al. (J. Biol. Chem., 1998, 273, 14037). After adding 100 μL of reaction buffer (200 mM Tris-HCl; pH 10.5; 0.4 M of 2-amino-2-methylpropanol and 8 mM of MgCl2) and 50 μL of substrate (4 mM of p-nitrophenyl disodium phosphate), the lysates were incubated at 37° C. for 30-60 min, then the optical density was read at a wavelength of 415 nm.

[1] = target: T1, human Smoothened receptor (Homo sapiens, UniProt Q99835); assay: Inhibition of binding of 3H-(7d) to membranes of HEK-hSmo cells; details: for Ki: read-out: Ki ± SEM, binding of compound 3H-(7d)
T1 construct: expressed in transfected cells
Procedure: The binding test is carried out on membranes enriched with Smoothened receptor. Cells of the HEK-hSmo line were used for preparing these membranes. The cells are washed and recovered in iced PBS. After centrifugation at 100 g for 7 minutes at 4° C., the pellet is taken up in 10 times its volume of an iced buffer A (50 mM HEPES, pH 7.4, 1 mM EDTA) with addition of 10 μl of a cocktail of protease inhibitors (PEAK, Sigma) per ml of buffer, then it is homogenized using a Polytron grinding mill. After centrifugation at 500 g for 30 minutes at 4° C., which makes it possible to remove the nuclei from the cells, the supernatant is centrifuged again at 48 000 g for 45 min at 4° C. The pellet is taken up in 2 ml of buffer A with PEAK added, then the suspension is homogenized using a glass conical grinding mill and is passed through a 23 G needle. Finally, aliquots are placed in Eppendorf tubes and stored at −80° C. The concentration of total protein in the preparation is determined by Lowry's method using BSA for preparing the standard range.
The membranes are resuspended in a buffer (50 mM HEPES and 3 mM MgCl2) containing 0.2% of BSA. The tests of binding of ^3H-(7d) are carried out in polypropylene tubes. The membranes (2 μg of proteins) are incubated with the ^3H-(7d) in the presence or absence of the cold test compounds for 3 hours at 37° C. in a final volume of 400 μl. Incubation is stopped by immersing the tubes in iced water followed by rapid filtration (Brandel) through a glass fiber filtration membrane (GF/C) treated beforehand with 0.3% of polyethylenimine, which can reduce the nonspecific binding of the ^3H-(7d) to the filtration membrane. The radioactivity retained on the filter is measured in the presence of 3 ml of scintillating agent in a liquid scintillation counter.
In this experiment, the cold ligand competes with the radioactive ligand for binding to the receptor, and the affinity (Ki) of each cold ligand for the receptor can be analyzed based on the IC50 values deduced from the inhibition curves.

[2] = Binding of 3H-(7d) to membranes of HEK293 cells not transfected with human Smo cDNA; details: 1 μM
PCGs of rat cerebellum = assay: Proliferation of granule cell precursors (PCGs) of rat cerebellum induced by SAG, 3H-thymidine incorporation; format: cell-based; details: proliferation induced by SAG (0.01 μM), 3H-thymidine incorporation, read-out: IC50 ± SEM, PCGs of rat cerebellum (3)
Procedure: The granule cell precursors (GCP) are isolated from cerebellums of rats (IFFA-CREDO, France), 8 days after birth (P8). The cerebellums are taken, cut into small pieces, placed in Krebs-Ringer buffer (120 mM NaCl, 5 mM KCl, 1 mM KH2PO4, 25 mM NaHCO3, 15 mM glucose, 0.04 mM phenol red) and incubated for 15 minutes at room temperature in a dissociation buffer composed of Krebs-Ringer with addition of 250 mg/ml of trypsin (Sigma, France). Enzymatic dissociation is stopped by adding an equal volume of Krebs-Ringer buffer containing 250 mg/ml of a trypsin inhibitor and 80 mg/ml of DNase (Sigma, France). The tissue is centrifuged at 100 g for 10 seconds and the pellet obtained is resuspended and triturated using Pasteur pipettes of decreasing diameter to obtain a suspension of isolated cells. This suspension is centrifuged at 200 g for 5 minutes and the pellet obtained is resuspended in Neurobasal medium supplemented with 1 mM of pyruvate, 2 mM L-glutamine, penicillin/streptomycin and 1% of supplement N2, 60 mg/ml N-acetyl cysteine and […] of bovine serum albumin (BSA, Sigma, France).
The cerebellar GCPs obtained are transferred to 96-well plates treated beforehand with poly-D-lysine at a density of 2.10^5 cells/well. SAG in the presence or absence of the other test compounds is added immediately. 12 hours before the end of culture, tritiated thymidine (^3H-thymidine) is added. The cells are aspirated and recovered on a glass fiber filter (GF/C) using an automated cell collector (Brandel, USA). The amount of radioactivity incorporated by the cells was quantified in the presence of a scintillating agent in a liquid scintillation counter (Wallac, USA).
The cerebellar PCGs proliferate in response to activation of the Shh signalling pathway, a response that can be inhibited by the Smo antagonists (Rohatgi et al., 2009, Proc. Natl. Acad. Sci. USA 106: 3196-201). We therefore analyzed the capacity of compound (7d) for inhibiting the proliferation of the PCGs of rat cerebellum in primary culture by measuring the incorporation of tritiated thymidine, a marker of DNA newly synthesized during the proliferation process.

human Smo receptor = target: T2, human Smo receptor (Homo sapiens, UniProt Q99835); assay: Competition with bodipy-cyclopamine (BC) binding in HEK-hSmo cells; details: for IC50: bodipy-cyclopamine (5 nM), HEK-hSmo cells, read-out: IC50 ± SEM, BC binding (4)
T2 construct: expressed in transfected cells
Procedure: Cells of the HEK293 line stably transfected with the human Smo receptor are used. The experiment was conducted according to the protocol described in Roudaut et al., Mol. Pharmacol. 79: 453-460, 2011.
At the end of the incubation, the cells are fixed and stained with DAPI, a fluorescent molecule with high affinity for DNA which makes it possible to visualize the nuclei in blue in fluorescence microscopy.

cells = details: Borzillo et al., 2005; cited from earlier work
[3] = Mus musculus, C3H 10T1/2, after induction by SAG at 0.1 μM, read-out: IC50, inhibition of alkaline phosphatase (AP) activity, differentiation of C3H10T1/2 cells
[4] = Mus musculus, C3H 10T1/2, AP activity, differentiation induced by SAG (0.1 μM), read-out: IC50 ± SEM, C3H10T1/2 cells (2)
[5] = 0.35 nM 3H-(7d), HEK-hSmo membranes, 3 hours at 37° C., read-out: IC50 ± SEM, binding of compound 3H-(7d)
[6] = calculated from IC50, HEK-hSmo membranes
[7] = AP activity, differentiation induced by SAG (0.1 μM), read-out: IC50 ± SEM, C3H10T1/2 cells (2)
[8] = after induction by SAG at 0.1 μM, read-out: IC50, inhibition of alkaline phosphatase (AP) activity, differentiation of C3H10T1/2 cells

T1 sequence (Q99835 28-787): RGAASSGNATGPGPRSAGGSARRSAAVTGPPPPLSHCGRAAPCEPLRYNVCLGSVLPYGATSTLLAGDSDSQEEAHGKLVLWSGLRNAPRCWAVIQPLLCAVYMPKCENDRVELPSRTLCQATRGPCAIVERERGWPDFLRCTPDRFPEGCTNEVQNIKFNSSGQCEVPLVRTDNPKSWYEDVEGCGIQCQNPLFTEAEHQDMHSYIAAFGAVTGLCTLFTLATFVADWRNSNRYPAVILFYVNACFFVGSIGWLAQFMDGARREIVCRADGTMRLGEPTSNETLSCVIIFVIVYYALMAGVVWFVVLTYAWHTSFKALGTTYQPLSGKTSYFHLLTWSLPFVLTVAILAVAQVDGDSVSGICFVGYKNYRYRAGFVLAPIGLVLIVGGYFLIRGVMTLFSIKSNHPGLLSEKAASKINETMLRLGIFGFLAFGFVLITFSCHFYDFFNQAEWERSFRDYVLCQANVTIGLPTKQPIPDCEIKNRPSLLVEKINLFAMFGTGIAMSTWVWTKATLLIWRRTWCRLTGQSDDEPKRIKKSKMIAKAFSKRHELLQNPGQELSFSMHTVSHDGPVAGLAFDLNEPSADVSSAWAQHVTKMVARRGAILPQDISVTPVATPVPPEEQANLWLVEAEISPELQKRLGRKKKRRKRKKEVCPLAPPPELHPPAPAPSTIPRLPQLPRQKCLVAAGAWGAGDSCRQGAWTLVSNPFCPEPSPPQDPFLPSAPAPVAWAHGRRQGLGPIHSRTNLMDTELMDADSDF
T2 sequence (Q99835 28-787): as above

- IC50 (C3H10T1/2 cells; [3]): 32 ± 11 nM
Compound: COc1cc(C(=O)NC(=N)Nc2ccc(C)c(NC(=O)c3ccc(C(=O)c4ccccc4)cc3)c2)cc(OC)c1OC [Compound 7a, N—(N-(3-(4-benzoylbenzamido)-4-methylphenyl)carbamimidoyl)-3,4,5-trimethoxybenzamide hydrochloride]

- IC50 (C3H10T1/2 cells; [3]): 28 ± 3 nM
Compound: COc1cc(C(=O)NC(=N)Nc2ccc(C)c(NC(=O)c3ccc4c(c3)Cc3ccccc3-4)c2)cc(OC)c1OC [Compound 7b, N-(2-methyl-5-(3-(3,4,5-trimethoxybenzoyl)guanidino)phenyl)-9H-fluorene-2-carboxamide hydrochloride]

- IC50 (C3H10T1/2 cells; [3]): 57 ± 2 nM
Compound: COc1cc(C(=O)NC(=N)Nc2ccc(C)c(NC(=O)c3ccc(C/C=C/c4ccccc4)cc3)c2)cc(OC)c1OC [Compound 7e, (E)-N—(N-(3-(4-cinnamylbenzamido)-4-methylphenyl)carbamimidoyl)-3,4,5-trimethoxybenzamide hydrochloride]

- IC50 (C3H10T1/2 cells; [3]): 220 ± 25 nM
Compound: COc1cc(C(=O)NC(=N)Nc2ccc(C)c(NC(=O)c3ccc(Cc4ccccc4)cc3)c2)cc(OC)c1OC [Compound 7g, N—(N-(3-(4-benzylbenzamido)-4-methylphenyl)carbamimidoyl)-3,4,5-trimethoxybenzamide hydrochloride]

- IC50 (C3H10T1/2 cells; [3]): 72 ± 15 nM
Compound: COc1cc(C(=O)NC(=N)Nc2ccc(C)c(NC(=O)c3ccc(OCc4ccccc4)cc3)c2)cc(OC)c1OC [Compound 7h, N—(N-(3-(4-(benzyloxy)benzamido)-4-methylphenyl)carbamimidoyl)-3,4,5-trimethoxybenzamide hydrochloride]

- IC50 (C3H10T1/2 cells; [4]): 10 ± 3 nM
- IC50 (C3H10T1/2 cells; [3]): 10 ± 1 nM
- Inhibition of the specific binding of compound 3H-(7d) at a single concentration ([1]; 1 μM): completely inhibits
Compound: CS(=O)(=O)c1ccc(C(=O)Nc2ccc(Cl)c(-c3ccccn3)c2)c(Cl)c1 [GDC-0449]
- Effect on the binding of compound 3H-(7d) to non-transfected membranes [2]: no effect
- IC50 (PCGs of rat cerebellum; Rattus norvegicus): 8 ± 1 nM

- IC50 (human Smo receptor): 8 ± 2 nM
- IC50 (C3H10T1/2 cells; [4]): 22 ± 3 nM
- IC50 (C3H10T1/2 cells; [3]): 22 ± 3 nM
- IC50 [1, 5]: 4 nM and 4.2 nM
- Ki [1, 6]: 1.9 ± 0.3 nM
Compound: Cc1c(C(=O)Nc2ccc(N3C[C@@H](C)O[C@@H](C)C3)nc2)cccc1-c1ccc(OC(F)(F)F)cc1 [LDE225]
- IC50 (PCGs of rat cerebellum; Rattus norvegicus): 3 nM

- IC50 (C3H10T1/2 cells; SAG 0.1 μM, Mean ± SEM, n ≧ 3, read-out: IC50, differentiation of C3H10T1/2 cells): 900 ± 200 nM
Compound: COc1cc(C(=O)NC(=S)Nc2cccc(NC(=O)c3ccccc3)c2)cc(OC)c1OC [MRT-10]

- Block of the binding of BC to HEK-hSmo cells, in words (human Smo receptor; BC 5 nM, 2 hours): very similar and high
- IC50 (human Smo receptor): 5 ± 3 nM
- IC50 (C3H10T1/2 cells; [7]): 11 ± 3 nM
- IC50 (C3H10T1/2 cells; [8]): 11 ± 3 nM
- IC50 [1, 5]: 11 nM and 10.5 nM
- Ki [1, 6]: 4.8 ± 1.2 nM
Compound: COc1cc(C(=O)NC(N)=Nc2ccc(C)c(NC(=O)c3ccc(-c4ccccc4)cc3)c2)cc(OC)c1OC [MRT-83]
- IC50 (PCGs of rat cerebellum): 6 nM

The next lines start with the compound.

Compound: COc1cccc(CN(C(=O)CC(C)(C)C)[C@H]2C[C@@H](C(=O)N3CCNCC3)N(Cc3ccc4c(c3)OCO4)C2)c1 [Cur61414]
- Inhibition of the binding of compound 3H-(7d), in words ([1]; HEK-hSmo membranes): micromolar order

Compound: c1ccc2c(Oc3nc(Nc4ccc(N5CCOCC5)cc4)c4ncn(C5CCCCC5)c4n3)cccc2c1 [Purmorphamine, purmorphamine]
- IC50 ± SEM, binding of compound 3H-(7d) ([1]; 0.35 nM 3H-(7d), HEK-hSmo membranes, 3 hours at 37° C.): inactive
- Inhibition of the binding of compound 3H-(7d), in words ([1]; HEK-hSmo membranes): not active
- IC50 ([1]; HEK-hSmo membranes, agonists (FIG. 5), read-out: IC50, binding of compound 3H-(7d), unit inferred): > 1000 nM
- Ki ± SEM, binding of compound 3H-(7d) [1, 6]: inactive

Compound: CNC1CCC(N(Cc2cccc(-c3ccncc3)c2)C(=O)c2sc3ccccc3c2Cl)CC1 (centres unmarked) [SAG]
- IC50 [1, 5]: 5 nM and 5.2 nM
- Ki [1, 6]: 2.4 ± 0.3 nM

Compound: cyclopamine
- IC50 (C3H10T1/2 cells; [7]): 620 ± 30 nM
- IC50 (C3H10T1/2 cells; [8]): 620 ± 30 nM
- IC50 (PCGs of rat cerebellum): 103 nM
- Concentration cytotoxic for the cells (cells): above 10 μM
